US4963655A, “Boron analogs of amino acid/peptide protease inhibitors” (Mayo Foundation for Medical Education and Research, priority 1988, dated 1990)

Tests used:
[1] = system: Human melanoma cells (A375); assay: Growth Inhibition Assay; type: cell-based; settings: for Growth Inhibition (%) 24 hr: counted after 24 hr growth; for Growth Inhibition (%) 48 hr: counted after 48 hr growth; for Growth Inhibition (%) 96 hr: counted after 96 hr growth; for % Inhib (growth): 96 h exposure, fresh inhibitor every 24 h; for growth inhibitory activity (in words): other serine protease inhibitors, Table 2
Experimental: Human melanoma cells (A375) were seeded at 2 ×10^4 cells per tissue culture dish (60×15 mm, Falcon) in Delbecco's Minimal Essential Media (DMEM) containing 10% fetal calf serum and including 1% antibiotics. Cells were allowed to attach for 48 hours prior to exposure to drugs. Cbz-ala-1-borovaline and Cbz-ala-1-borophenylalanine were dissolved in dimethyl sulfoxide (DMSO). The final DMSO concentration in media was 0.5%. Fresh media was exchanged for the media including the drug at appropriate exposure times. Cells were counted after 24, 48 or 96 hours of growth using a Coulter counter. Growth inhibition is expressed as the percent reduction of drug treated cells with respect to untreated control cells.

[2] = system: human lung carcinoma (A549) cells; assay: Growth and colony formation of A549 cells in culture; type: cell-based
From the text: Qualitatively similar results were obtained against human lung carcinoma (A549) cells in culture (data not shown). […] The plateau, however, was not observed in association with the analog after the 1-hour (FIG. 3A) or continuous (FIG. 3C) exposure times. A similar plateau was never observed with Cbz-ala-1-borophenylalanine treatment. A plateau was also seen with A549 cells. A growth inhibition assay (Table 1) yielded qualitatively similar results as the colony formation assay.

[3] = system: Lewis lung murine tumor cells; settings: Lewis lung murine tumor cells in culture; Goz et al.; cited from earlier work
[4] = system: Human melanoma cells (A375); assay: Colony Formation Assay (CFA); type: cell-based
Experimental: Human melanoma cells (A375) were seeded at 500 cells per tissue culture dish and allowed to recover for 48 hours. The drug and media mixture was prepared as described above. Following drug exposure, fresh media were substituted for the drug and media mixture. After 7 days, colonies were stained with 0.25% Coomassie Blue and enumerated. Data are expressed as the percent of colonies present in treated plates with respect to control plates (percent survival).

A375 cells = assay: Macromolecular synthesis: protein synthesis ([3H]-leucine incorporation); type: cell-based, human; settings: 0.075 ug/ml
Experimental: Protein synthesis was determined by the incorporation of [^3 H]-leucine into protein in viable cells.
Human melanoma (A375) cells were seeded at 1 ×10^5 cells per tissue culture dish 48 hours prior to the addition of the drug (for example, Cbz-ala-1borovaline or Cbz-ala-1-borophenylalanine). The drug and media mixture was prepared as described above. During the last 30 minutes of drug exposure radioactive labeled precursors were added to the media and drug mixture. Specifically, either ^3 H-thymidine (0.2 uCi/ml, to measure DNA synthesis), ^3 H-uridine (0.2 uCi/ml, to measure RNA synthesis, or ^3 H-leucine (1 uCi/ml, to measure protein synthesis) were added. Following 30 minutes at 37° C., the cells were harvested, resuspended in physiological buffered saline (PBS) and the cells counted. An aliquot of the cell suspension was then lysed (10 mM Tris, 1 mM EDTA, 0.1% SDS) and macromolecules were precipitated with ice-cold trichloroacetic acid (TCA) (20%). Following three washes with TCA, radioactivity in the resulting pellet was counted on a Beckman LS2000 Scintillation Counter. Data is expressed as the percentage of counts incorporated into 1×10^6 treated cells as compared to 1×10^6 untreated cells (percent incorporation).

[5] = system: L1210 murine leukemia cells; assay: Growth inhibition of L1210 cells in culture; type: cell-based; settings: 72-hour exposure, 0.03 uM
Experimental: Following a 72-hour exposure to 0.03 uM ala-1-borovaline, approximately 50% growth inhibition was observed. The two compounds are also cytotoxic to human tumor cell lines. While not yet fully understood, the mechanism of cytotoxicity is not via macromolecular synthesis inhibition in the human tumor cell lines.

CC(NC(=O)OCc1ccccc1)C(=O)NC(Cc1ccccc1)B(O)O (centres unmarked) [Cbz-ala-1-Borophenylalanine, Cbz-ala-1-borophenylalanine]
growth inhibition ([1]; 0.075 ug/ml, 24-hour exposure): 70%
Growth Inhibition (%) 24 hr ([1]; exposure 1 h, 51.6 uM): 20%
Growth Inhibition (%) 48 hr ([1]; exposure 1 h, 51.6 uM): 41%
Growth Inhibition (%) 96 hr ([1]; exposure 1 h, 51.6 uM): 52%
Growth Inhibition (%) 24 hr ([1]; exposure 1 h, 129 uM): 42%
Growth Inhibition (%) 48 hr ([1]; exposure 1 h, 129 uM): 65%
Growth Inhibition (%) 96 hr ([1]; exposure 1 h, 129 uM): 69%
Growth Inhibition (%) 24 hr ([1]; exposure 24 h, .026 uM): 5%
Growth Inhibition (%) 48 hr ([1]; exposure 24 h, .026 uM): 3%
Growth Inhibition (%) 96 hr ([1]; exposure 24 h, .026 uM): 15%
Growth Inhibition (%) 24 hr ([1]; exposure 24 h, .129 uM): 41%
Growth Inhibition (%) 48 hr ([1]; exposure 24 h, .129 uM): 63%
Growth Inhibition (%) 96 hr ([1]; exposure 24 h, .129 uM): 68%
Growth Inhibition (%) 24 hr ([1]; exposure 24 h, .645 uM): 75%
Growth Inhibition (%) 48 hr ([1]; exposure 24 h, .645 uM): 72%
Growth Inhibition (%) 96 hr ([1]; exposure 24 h, .645 uM): 98%
Growth Inhibition (%) 24 hr ([1]; exposure 96 h, .1239 uM): 38%
Growth Inhibition (%) 48 hr ([1]; exposure 96 h, .1239 uM): 68%
Growth Inhibition (%) 96 hr ([1]; exposure 96 h, .1239 uM): 75%
Growth Inhibition (%) 24 hr ([1]; exposure 96 h, .258 uM): 58%
Growth Inhibition (%) 48 hr ([1]; exposure 96 h, .258 uM): 91%
Growth Inhibition (%) 96 hr ([1]; exposure 96 h, .258 uM): 95%
inhibition of growth and colony formation (in words) [2]: effective inhibitors
cytotoxicity (in words) [3]: modest activity
Colony Formation Inhibition (%) ([4]; exposure 1 h, 51.6 uM): 55%
Colony Formation Inhibition (%) ([4]; exposure 24 h, .026 uM): 10%
Colony Formation Inhibition (%) ([4]; exposure 24 h, .129 uM): 35%
Colony Formation Inhibition (%) ([4]; exposure 24 h, .645 uM): 97%
inhibition of protein synthesis (A375 cells): did not show an acute inhibition of protein synthesis

CC(NC(=O)OCc1ccccc1)C(=O)NC(B(O)O)C(C)C (centres unmarked) [Cbz-ala-1-Borovaline, Cbz-ala-1-borovaline]
Growth Inhibition (%) 24 hr ([1]; exposure 1 h, 7.36 uM): 14%
Growth Inhibition (%) 48 hr ([1]; exposure 1 h, 7.36 uM): 33%
Growth Inhibition (%) 96 hr ([1]; exposure 1 h, 7.36 uM): 46%
Growth Inhibition (%) 24 hr ([1]; exposure 1 h, 29.43 uM): 23%
Growth Inhibition (%) 48 hr ([1]; exposure 1 h, 29.43 uM): 48%
Growth Inhibition (%) 96 hr ([1]; exposure 1 h, 29.43 uM): 73%
Growth Inhibition (%) 24 hr ([1]; exposure 24 h, 1.47 uM): 61%
Growth Inhibition (%) 48 hr ([1]; exposure 24 h, 1.47 uM): 88%
Growth Inhibition (%) 96 hr ([1]; exposure 24 h, 1.47 uM): 93%
Growth Inhibition (%) 24 hr ([1]; exposure 24 h, .003 uM): 5%
Growth Inhibition (%) 48 hr ([1]; exposure 24 h, .003 uM): 5%
Growth Inhibition (%) 96 hr ([1]; exposure 24 h, .003 uM): 14%
Growth Inhibition (%) 24 hr ([1]; exposure 24 h, .029 uM): 17%
Growth Inhibition (%) 48 hr ([1]; exposure 24 h, .029 uM): 50%
Growth Inhibition (%) 96 hr ([1]; exposure 24 h, .029 uM): 68%
Growth Inhibition (%) 24 hr ([1]; exposure 96 h, .029 uM): 21%
Growth Inhibition (%) 48 hr ([1]; exposure 96 h, .029 uM): 51%
Growth Inhibition (%) 96 hr ([1]; exposure 96 h, .029 uM): 68%
Growth Inhibition (%) 24 hr ([1]; exposure 96 h, .736 uM): 53%
Growth Inhibition (%) 48 hr ([1]; exposure 96 h, .736 uM): 78%
Growth Inhibition (%) 96 hr ([1]; exposure 96 h, .736 uM): 89%
inhibition of growth and colony formation (in words) [2]: effective inhibitors
inhibition of colony formation, comparison of potency (in words) ([4]; FIG. 3): more potent inhibitor of colony formation than was Cbz-ala-1-borophenylalanine
Colony Formation Inhibition (%) ([4]; exposure 1 h, 7.36 uM): 41%
Colony Formation Inhibition (%) ([4]; exposure 1 h, 29.43 uM): 87%
Colony Formation Inhibition (%) ([4]; exposure 24 h, 1.47 uM): 87%
Colony Formation Inhibition (%) ([4]; exposure 24 h, .003 uM): 5%
Colony Formation Inhibition (%) ([4]; exposure 24 h, .029 uM): 43%
growth inhibition [5]: approximately 50%

Aprotinin [reference compound]
% Inhib (growth) ([1]; 1.54 uM): 0%
% Inhib (growth) ([1]; 15.4 uM): 0%
% Inhib (growth) ([1]; .015 uM): 0%
% Inhib (growth) ([1]; .154 uM): 0%
growth inhibitory activity (in words) [1]: Negligible growth inhibition

N-tosylphenylalanine chloromethyl ketone [TPCK, reference compound]
% Inhib (growth) ([1]; 2.84 uM): 42%
% Inhib (growth) ([1]; 28.4 uM): 100%
% Inhib (growth) ([1]; 142 uM): 100%
% Inhib (growth) ([1]; 284 uM): 100%
% Inhib (growth) ([1]; .028 uM): 5%
% Inhib (growth) ([1]; .284 uM): 9%
growth inhibitory activity (in words) [1]: inhibited growth at very high concentrations

B1: Ovomucoid: serine protease inhibitor (protein, UniProt P01005 25-210, looked up)
Ovomucoid: AEVDCSRFPNATDKEGKDVLVCNKDLRPICGTDGVTYTNDCLLCAYSIEFGTNISKEHDGECKETVPMNCSSYANTTSEDGKVMVLCNRAFNPVCGTDGVTYDNECLLCAHKVEQGASVDKRHDGGCRKELAAVSVDCSEYPKPDCTAEDRPLCGSDNKTYGNKCNFCNAVVESNGTLTLSHFGKC
% Inhib (growth) ([1]; 3.57 uM): 0%
% Inhib (growth) ([1]; 17.9 uM): 0%
% Inhib (growth) ([1]; 89.3 uM): 5%
% Inhib (growth) ([1]; .004 uM): 0%
% Inhib (growth) ([1]; .036 uM): 0%
% Inhib (growth) ([1]; .357 uM): 1%
growth inhibitory activity (in words) [1]: Negligible growth inhibition
